Assay results reported in patent publication US9181269B2, “Enantiomers of fluconazole analogues containing thieno-[2,-3-D]pyrimidin-4(3H)-one moiety as antifungal agents” (FDC Limited, priority 2011, dated 2015).
Converted amounts (≈) assume the structure as drawn.

Assays:
C. Krusei ATCC 6258 = test: MIC by broth dilution, CK01; assay type: cell-based; conditions: RPMI 1640 pH 7.0, 48 hours; for MIC50: Pichia kudriavzevii, ATCC6258, concentration exhibiting more than 50% inhibition vs positive control, read-out: MIC50 obtained by broth dilution method, MIC
Description: (§1) The compounds of Formula (1a) and (1b) were tested for antifungal activity against various strains of Candida(CA 01: Candida albicans ATCC 24433, CA 02: C. albicans ATCC 10231, CA 03: C. albicans ATCC 2091, CA 04: C. albicans ATCC 90028, CG 01: C. glabrata ATCC 90030, CK 01: C. Krusei ATCC 6258, CT 01: C. tropicalis ATCC 750). In vitro evaluation of antifungal activity was performed by determining the minimum inhibitory concentration (MIC) following standard broth dilution methods (CLSI: Reference method for broth dilution antifungal susceptibility testing of yeasts; Approved standard, second edition M27-A2, 2002; CLSI: Reference method for broth dilution antifungal susceptibility testing of filamentous fungi; […]. Known anti-fungal agents like Fluconazole and Amphotericin-B were used as standards. End points were determined after 48 hours visually and by using spectrophotometer wherever necessary. The activity parameters are enumerated in Table 10: […]

C. albicans ATCC 90028 = test: MIC by broth dilution, CA04; assay type: cell-based, Candida albicans; conditions: RPMI 1640 pH 7.0, 48 hours; for MIC50: Candida albicans, ATCC90028, concentration exhibiting more than 50% inhibition vs positive control, read-out: MIC50 obtained by broth dilution method, MIC
Description: as §1

C. albicans ATCC 2091 = test: MIC by broth dilution, CA03; assay type: cell-based, Candida albicans; conditions: RPMI 1640 pH 7.0, 48 hours; for MIC50: Candida albicans, ATCC2091, concentration exhibiting more than 50% inhibition vs positive control, read-out: MIC50 obtained by broth dilution method, MIC
Description: as §1

C. tropicalis ATCC 750 = test: MIC by broth dilution, CT01; assay type: cell-based; conditions: RPMI 1640 pH 7.0, 48 hours; for MIC50: Candida tropicalis, ATCC750, concentration exhibiting more than 50% inhibition vs positive control, read-out: MIC50 obtained by broth dilution method, MIC
Description: as §1

[1] = tested on: Candida albicans ATCC 24433; test: MIC by broth dilution, CA01; assay type: cell-based; conditions: RPMI 1640 pH 7.0, 48 hours; for MIC50: Candida albicans, ATCC24433, concentration exhibiting more than 50% inhibition vs positive control, read-out: MIC50 obtained by broth dilution method, MIC
Description: as §1

C. albicans ATCC 10231 = test: MIC by broth dilution, CA02; assay type: cell-based, Candida albicans; conditions: RPMI 1640 pH 7.0, 48 hours; for MIC50: Candida albicans, ATCC10231, concentration exhibiting more than 50% inhibition vs positive control, read-out: MIC50 obtained by broth dilution method, MIC
Description: as §1

C. glabrata ATCC 90030 = test: MIC by broth dilution, CG01; assay type: cell-based; conditions: RPMI 1640 pH 7.0, 48 hours; for MIC50: Nakaseomyces glabratus, ATCC90030, concentration exhibiting more than 50% inhibition vs positive control, read-out: MIC50 obtained by broth dilution method, MIC
Description: as §1

[2] = concentration exhibiting complete inhibition

SMILES	MIC50 (C. Krusei ATCC 6258) [µg/mL]	MIC50 (C. albicans ATCC 90028) [µg/mL]	MIC50 (C. albicans ATCC 2091) [µg/mL]	MIC50 (C. tropicalis ATCC 750) [µg/mL]	MIC50 [1] [µg/mL]	MIC50 (C. albicans ATCC 10231) [µg/mL]	MIC50 (C. glabrata ATCC 90030) [µg/mL]	MIC in μg/ml (Amphotericin B) (C. Krusei ATCC 6258; [2]) [µg/mL]	MIC in μg/ml (Amphotericin B) (C. albicans ATCC 90028; [2]) [µg/mL]	MIC in μg/ml (Amphotericin B) (C. albicans ATCC 2091; [2]) [µg/mL]	MIC in μg/ml (Amphotericin B) (C. tropicalis ATCC 750; [2]) [µg/mL]	MIC in μg/ml (Amphotericin B) [1, 2] [µg/mL]	MIC in μg/ml (Amphotericin B) (C. albicans ATCC 10231; [2]) [µg/mL]	MIC in μg/ml (Amphotericin B) (C. glabrata ATCC 90030; [2]) [µg/mL]
CCCc1cc2c(=O)n(C[C@](O)(Cn3cncn3)c3ccc(F)cc3F)cnc2s1 [Formula 1b-04, (S)-3-[2-(2,4-Difluorophenyl)-2-hydroxy-3-[1,2,4]triazol-1-yl-propyl]-6-(n-propyl)-thieno[2,3-d]pyrimidin-4(3H)-one]	1	0.03	0.03	0.06	0.03	0.06	0.03							
CCCCCc1cc2c(=O)n(C[C@@](O)(Cn3cncn3)c3ccc(F)cc3F)cnc2s1 [Formula 1a-02, (R)-3-[2-(2,4-difluorophenyl)-2-hydroxy-3-(1H-1,2,4-triazol-1-yl)propyl]-6-n-pentylthieno[2,3-d]pyrimidin-4(3H)-one]	> 16	4	8	16	4	8	4							
CCCCCCCc1cc2c(=O)n(C[C@](O)(Cn3cncn3)c3ccc(F)cc3F)cnc2s1 [Formula 1b-03, (S)-3-[2-(2,4-Difluorophenyl)-2-hydroxy-3-[1,2,4]triazol-1-yl-propyl]-6-n-heptyl-thieno[2,3-d]pyrimidin-4(3H)-one]	1	0.25	0.5	1	0.12	0.5	0.25							
CCCCCCc1cc2c(=O)n(C[C@](O)(Cn3cncn3)c3ccc(F)cc3F)cnc2s1 [Formula 1b-01, (S)-3-[2-(2,4-Difluorophenyl)-2-hydroxy-3-[1,2,4]triazol-1-yl-propyl]-6-(n-hexyl)-thieno[2,3-d]pyrimidin-4(3H)-one]	1	0.12	0.25	0.25	0.06	0.12	0.12							
C[C@@H]1[C@H](O)[C@@H](C)/C=C/C=C/C=C/C=C/C=C/C=C/C=C/[C@H](O[C@@H]2O[C@H](C)[C@@H](O)[C@H](N)[C@@H]2O)C[C@@H]2O[C@](O)(C[C@@H](O)C[C@@H](O)[C@H](O)CC[C@@H](O)C[C@@H](O)CC(=O)O[C@H]1C)C[C@H](O)[C@H]2C(=O)O [AMB, Amphotericin-B, reference compound]								0.5 (≈ 0.541 µM)	0.5 (≈ 0.541 µM)	0.5 (≈ 0.541 µM)	0.5 (≈ 0.541 µM)	0.25 (≈ 0.271 µM)	0.5 (≈ 0.541 µM)	0.25 (≈ 0.271 µM)
CCCCCc1cc2c(=O)n(C[C@](O)(Cn3cncn3)c3ccc(F)cc3F)cnc2s1 [Formula 1b-02, (S)-3-[2-(2,4-difluorophenyl)-2-hydroxy-3-(1H-1,2,4-triazol-1-yl)propyl]-6-n-pentylthieno[2,3-d]pyrimidin-4(3H)-one]	1	0.03	0.12	0.06	0.03	0.12	0.06							
OC(Cn1cncn1)(Cn1cncn1)c1ccc(F)cc1F [FLU, Fluconazole]	64 (≈ 209 µM)	0.5 (≈ 1.63 µM)	0.5 (≈ 1.63 µM)	2 (≈ 6.53 µM)	1 (≈ 3.27 µM)	1 (≈ 3.27 µM)	4 (≈ 13.1 µM)							
